target: T1, hM5 (Homo sapiens, UniProt P08912); experiment: Calcium mobilization concentration-response (IC50 vs EC80 acetylcholine), CHO hM5; format: cell-based; conditions: CELL LINE hM5; vs EC80 acetylcholine; read-out: IC50
T1 construct: expressed in transfected cells
T1 sequence (P08912 1-532): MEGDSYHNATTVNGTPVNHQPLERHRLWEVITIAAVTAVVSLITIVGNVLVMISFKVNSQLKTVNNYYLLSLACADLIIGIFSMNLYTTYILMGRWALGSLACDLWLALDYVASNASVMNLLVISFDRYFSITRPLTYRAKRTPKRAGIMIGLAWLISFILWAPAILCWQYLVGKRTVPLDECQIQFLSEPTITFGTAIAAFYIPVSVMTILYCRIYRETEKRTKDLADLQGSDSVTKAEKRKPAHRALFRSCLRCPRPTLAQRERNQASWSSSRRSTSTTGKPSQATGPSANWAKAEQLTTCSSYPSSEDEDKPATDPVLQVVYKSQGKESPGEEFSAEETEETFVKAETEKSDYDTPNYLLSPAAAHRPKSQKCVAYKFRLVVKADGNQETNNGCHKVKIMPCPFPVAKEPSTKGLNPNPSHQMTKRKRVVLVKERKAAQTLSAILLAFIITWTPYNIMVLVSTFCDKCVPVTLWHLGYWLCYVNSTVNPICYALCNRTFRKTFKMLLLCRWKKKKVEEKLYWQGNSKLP
Outline: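 IC50 values derive from percent maximal acetylcholine response after an EC80 ACh addition, measured as kinetic calcium fluorescence (static ratio, max−min). Test compounds were added 140 s before agonist. Cells: stable hM5-CHO in HEPES-buffered HBSS with 2.5 mM probenecid, pH 7.4; ≥3 independent triplicate determinations.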

SMILES | IC50 [nM]
[2H]C([2H])([2H])Oc1c(S(=O)(=O)N2CCC(c3cn4ncnc4cc3C(F)(F)F)CC2)cnn1C [Compound 615, 6-(1-((5-(methoxy-d3)-1-methyl-1H-pyrazol-4-yl)sulfonyl)piperidin-4-yl)-7-(trifluoromethyl)-[1,2,4]triazoto[1,5-a]pyridine] | 114
[2H]C([2H])([2H])Oc1c(S(=O)(=O)N2CCC(c3cn4ncnc4cc3F)CC2)cnn1C [Compound 616, 7-fluoro-6-(1-((5-(methoxy-d3)-1-methyl-1H-pyrazol-4-yl)sulfonyl)piperidin-4-yl)-[1,2,4]triazolo[1,5-a]pyridine] | 655
[2H]C([2H])([2H])Oc1c(S(=O)(=O)N2CCC(c3nn4ncnc4cc3C)CC2)cnn1C [Compound 617, 6-(1-((5-(methoxy-d3)-1-methyl-1H-pyrazol-4-yl)sulfonyl)piperidin-4-yl)-7-methyl-[1,2,4]triazolo[1,5-b]pyridazine] | 1980
[2H]C1([2H])CC(c2cn3ncnc3cc2Cl)CC([2H])([2H])N1S(=O)(=O)c1cnn(C)c1CC#N [Compound 621, 2-(4-((4-(7-chloro-[1,2,4]triazolo[1,5-a]pyridin-6-yl)piperidin-1-yl-2,2,6,6-d4)sulfonyl)-1-methyl-1H-pyrazol-5-yl)acetonitrile] | 43
Cc1cc2ncnn2cc1C1CCN(S(=O)(=O)c2cnn(C)c2N2CCOCC2)CC1 [Compound 622, 4-(1-Methyl-4-((4-(7-methyl-[1,2,4]triazolo[1,5-a]pyridin-6-yl)piperidin-1-yl)sulfonyl)-1H-pyrazol-5-yl)morpholine] | 1970
Cc1ncc(S(=O)(=O)N2CCC(c3cn4ncnc4cc3CF)CC2)o1 [Compound 623, 5-((4-(7-(fluoromethyl)-[1,2,4]triazolo[1,5-a]pyridin-6-yl)piperidin-1-yl)sulfonyl)-2-methyloxazole] | 246

Source: patent publication US20230183237A1, “COMPETITIVE AND NONCOMPETITIVE INHIBITORS OF THE MUSCARINIC ACETYLCHOLINE RECEPTOR M5” (Vanderbilt University, priority 2020, published 2023)
